From ChEMBL document CHEMBL5058645, “Data for DCP probe JNJ-6204” (2022)

Legend:
[1] = target: Ephrin type-A receptor 3 (Homo sapiens) (UniProt P29320); experiment: EphA3(h) Kinase panel; conditions: Compound concentration 1.0 uM, tested as the 2H-labelled form
[2] = target: MAP kinase-interacting serine/threonine-protein kinase 2 (Homo sapiens) (UniProt Q9HBH9); experiment: Mnk2(h) Kinase panel; conditions: Compound concentration 1.0 uM, tested as the 2H-labelled form
[3] = target: SRSF protein kinase 2 (Homo sapiens) (UniProt P78362); experiment: SRPK2(h) Kinase panel; conditions: Compound concentration 1.0 uM, tested as the 2H-labelled form
[4] = target: Serine/threonine-protein kinase D3 (Homo sapiens) (UniProt O94806); experiment: PKD3(h) Kinase panel; conditions: Compound concentration 1.0 uM, tested as the 2H-labelled form
[5] = target: SRSF protein kinase 1 (Homo sapiens) (UniProt Q96SB4); experiment: SRPK1(h) Kinase panel; conditions: Compound concentration 1.0 uM, tested as the 2H-labelled form
[6] = target: Ephrin type-B receptor 1 (Homo sapiens) (UniProt P54762); experiment: EphB1(h) Kinase panel; conditions: Compound concentration 1.0 uM, tested as the 2H-labelled form
[7] = target: Interleukin-1 receptor-associated kinase 1 (Homo sapiens) (UniProt P51617); experiment: IRAK1(h) Kinase panel; conditions: Compound concentration 1.0 uM, tested as the 2H-labelled form
[8] = target: RAC-beta serine/threonine-protein kinase (Homo sapiens) (UniProt P31751); experiment: PKBbeta (h) Kinase panel; conditions: Compound concentration 1.0 uM, tested as the 2H-labelled form
[9] = target: Tyrosine-protein kinase JAK3 (Homo sapiens) (UniProt P52333); experiment: JAK3(h) Kinase panel; conditions: Compound concentration 1.0 uM, tested as the 2H-labelled form
[10] = target: LIM domain kinase 2 (Homo sapiens) (UniProt P53671); experiment: LIMK2(h) Kinase panel; conditions: Compound concentration 1.0 uM, tested as the 2H-labelled form
Chain of LIM domain kinase 2 (Homo sapiens) (P53671 whole entry, looked up, the tested form may be a part): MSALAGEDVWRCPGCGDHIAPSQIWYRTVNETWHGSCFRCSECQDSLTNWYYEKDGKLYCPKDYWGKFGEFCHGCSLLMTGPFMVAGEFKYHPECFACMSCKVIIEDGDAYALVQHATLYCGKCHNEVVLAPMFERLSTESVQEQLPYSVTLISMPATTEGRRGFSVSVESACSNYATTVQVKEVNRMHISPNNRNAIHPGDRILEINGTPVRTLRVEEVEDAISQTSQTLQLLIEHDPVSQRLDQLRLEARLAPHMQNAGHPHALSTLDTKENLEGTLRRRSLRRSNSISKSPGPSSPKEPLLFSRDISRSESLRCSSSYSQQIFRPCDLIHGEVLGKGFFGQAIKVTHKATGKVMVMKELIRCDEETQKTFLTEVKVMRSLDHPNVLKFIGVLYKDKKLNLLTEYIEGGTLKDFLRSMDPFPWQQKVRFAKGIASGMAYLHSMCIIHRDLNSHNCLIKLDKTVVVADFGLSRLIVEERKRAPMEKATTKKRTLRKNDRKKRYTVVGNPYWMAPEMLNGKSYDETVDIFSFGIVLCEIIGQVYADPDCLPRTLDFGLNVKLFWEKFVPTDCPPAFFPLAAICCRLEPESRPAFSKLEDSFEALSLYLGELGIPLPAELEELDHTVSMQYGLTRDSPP

[11] = target: Protein kinase C zeta type (Homo sapiens) (UniProt Q05513); experiment: PKCzeta(h) Kinase panel; conditions: Compound concentration 1.0 uM, tested as the 2H-labelled form
[12] = target: Vascular endothelial growth factor receptor 1 (Homo sapiens) (UniProt P17948); experiment: Flt1(h) Kinase panel; conditions: Compound concentration 1.0 uM, tested as the 2H-labelled form
[13] = target: Dual specificity mitogen-activated protein kinase kinase 2 (Homo sapiens) (UniProt P36507); experiment: MEK2(h) Kinase panel; conditions: Compound concentration 1.0 uM, tested as the 2H-labelled form
[14] = target: Phosphatidylinositol 4,5-bisphosphate 3-kinase catalytic subunit delta isoform (Homo sapiens) (UniProt O00329); experiment: PI3 Kinase (p110d/p85a)(h) Kinase panel; conditions: Compound concentration 1.0 uM, tested as the 2H-labelled form
[15] = target: Casein kinase II subunit alpha (Homo sapiens) (UniProt P68400); experiment: CK2alpha1(h) Kinase panel; conditions: Compound concentration 1.0 uM, tested as the 2H-labelled form
[16] = target: Serine/threonine-protein kinase PAK 3 (Homo sapiens) (UniProt O75914); experiment: PAK3(h) Kinase panel; conditions: Compound concentration 1.0 uM, tested as the 2H-labelled form
[17] = target: Serine/threonine-protein kinase OSR1 (Homo sapiens) (UniProt O95747); experiment: OSR1(h) Kinase panel; conditions: Compound concentration 1.0 uM, tested as the 2H-labelled form
Chain of Serine/threonine-protein kinase OSR1 (Homo sapiens) (O95747 2-527 limits assumed): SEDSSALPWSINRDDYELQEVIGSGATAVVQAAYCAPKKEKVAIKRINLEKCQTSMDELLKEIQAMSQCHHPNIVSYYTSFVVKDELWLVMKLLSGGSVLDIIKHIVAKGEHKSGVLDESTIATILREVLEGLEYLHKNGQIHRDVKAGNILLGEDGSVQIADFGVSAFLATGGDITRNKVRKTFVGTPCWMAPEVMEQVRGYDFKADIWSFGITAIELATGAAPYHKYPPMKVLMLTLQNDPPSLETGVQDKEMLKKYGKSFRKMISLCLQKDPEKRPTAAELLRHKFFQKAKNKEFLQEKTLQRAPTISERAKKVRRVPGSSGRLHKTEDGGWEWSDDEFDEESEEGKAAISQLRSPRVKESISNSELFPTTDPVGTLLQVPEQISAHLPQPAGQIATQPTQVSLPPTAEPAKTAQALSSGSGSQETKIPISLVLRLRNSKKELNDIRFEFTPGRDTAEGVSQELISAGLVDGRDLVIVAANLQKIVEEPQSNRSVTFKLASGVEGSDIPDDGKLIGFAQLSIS

[18] = target: Serine/threonine-protein kinase 25 (Homo sapiens) (UniProt O00506); experiment: STK25(h) Kinase panel; conditions: Compound concentration 1.0 uM, tested as the 2H-labelled form
[19] = target: Serine/threonine-protein kinase Chk1 (Homo sapiens) (UniProt O14757); experiment: CHK1(h) Kinase panel; conditions: Compound concentration 1.0 uM, tested as the 2H-labelled form
Chain of Serine/threonine-protein kinase Chk1 (Homo sapiens) (O14757 whole entry): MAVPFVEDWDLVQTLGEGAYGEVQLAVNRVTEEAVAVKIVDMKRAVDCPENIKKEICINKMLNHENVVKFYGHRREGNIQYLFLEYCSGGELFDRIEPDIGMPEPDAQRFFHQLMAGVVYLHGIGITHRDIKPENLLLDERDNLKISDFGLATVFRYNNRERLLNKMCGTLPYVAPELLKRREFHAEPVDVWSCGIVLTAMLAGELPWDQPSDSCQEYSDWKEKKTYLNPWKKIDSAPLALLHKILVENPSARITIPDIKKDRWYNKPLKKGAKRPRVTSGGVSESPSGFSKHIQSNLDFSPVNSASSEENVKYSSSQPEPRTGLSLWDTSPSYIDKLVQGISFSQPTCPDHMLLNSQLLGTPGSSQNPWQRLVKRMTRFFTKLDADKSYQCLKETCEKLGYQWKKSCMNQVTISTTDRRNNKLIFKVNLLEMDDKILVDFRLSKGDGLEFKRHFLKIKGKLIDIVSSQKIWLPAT

[20] = target: Cyclin-dependent kinase 17 (Homo sapiens) (UniProt Q00537); experiment: CDK17/cyclinY(h) Kinase panel; conditions: Compound concentration 1.0 uM, tested as the 2H-labelled form
[21] = target: Phosphatidylinositol 4-phosphate 3-kinase C2 domain-containing subunit alpha (Homo sapiens) (UniProt O00443); experiment: PI3KC2a(h) Kinase panel; conditions: Compound concentration 1.0 uM, tested as the 2H-labelled form
[22] = target: Interferon-induced, double-stranded RNA-activated protein kinase (Homo sapiens) (UniProt P19525); experiment: PKR(h) Kinase panel; conditions: Compound concentration 1.0 uM, tested as the 2H-labelled form
[23] = target: Tyrosine-protein kinase Lyn (Homo sapiens) (UniProt P07948); experiment: Lyn(h) Kinase panel; conditions: Compound concentration 1.0 uM, tested as the 2H-labelled form
Chain of Tyrosine-protein kinase Lyn (Homo sapiens) (P07948 2-512 limits assumed): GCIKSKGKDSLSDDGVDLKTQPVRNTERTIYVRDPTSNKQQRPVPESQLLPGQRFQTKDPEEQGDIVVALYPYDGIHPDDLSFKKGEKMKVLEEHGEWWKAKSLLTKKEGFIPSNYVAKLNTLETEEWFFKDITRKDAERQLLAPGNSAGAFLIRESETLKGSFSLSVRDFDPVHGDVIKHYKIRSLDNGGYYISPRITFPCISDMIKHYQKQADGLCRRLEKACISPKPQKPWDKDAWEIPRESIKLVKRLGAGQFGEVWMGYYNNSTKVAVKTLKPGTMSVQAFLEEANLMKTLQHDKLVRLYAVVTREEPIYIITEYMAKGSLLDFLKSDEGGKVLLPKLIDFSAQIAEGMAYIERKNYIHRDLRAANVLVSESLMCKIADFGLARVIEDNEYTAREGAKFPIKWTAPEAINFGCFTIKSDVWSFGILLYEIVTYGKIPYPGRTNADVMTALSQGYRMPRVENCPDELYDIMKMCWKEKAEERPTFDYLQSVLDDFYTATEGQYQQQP

[24] = target: Vascular endothelial growth factor receptor 2 (Homo sapiens) (UniProt P35968); experiment: KDR(h) Kinase panel; conditions: Compound concentration 1.0 uM, tested as the 2H-labelled form
[25] = target: Tyrosine-protein kinase HCK (Homo sapiens) (UniProt P08631); experiment: Hck(h) Kinase panel; conditions: Compound concentration 1.0 uM, tested as the 2H-labelled form
[26] = target: Cyclin-dependent kinase 1 (Homo sapiens) (UniProt P06493); experiment: CDK1/cyclinB(h) Kinase panel; conditions: Compound concentration 1.0 uM, tested as the 2H-labelled form
[27] = target: Testis-specific serine/threonine-protein kinase 3 (Homo sapiens) (UniProt Q96PN8); experiment: TSSK3(h) Kinase panel; conditions: Compound concentration 1.0 uM, tested as the 2H-labelled form
[28] = target: Death-associated protein kinase 1 (Homo sapiens) (UniProt P53355); experiment: DAPK1(h) Kinase panel; conditions: Compound concentration 1.0 uM, tested as the 2H-labelled form
Chain of Death-associated protein kinase 1 (Homo sapiens) (P53355 whole entry, looked up): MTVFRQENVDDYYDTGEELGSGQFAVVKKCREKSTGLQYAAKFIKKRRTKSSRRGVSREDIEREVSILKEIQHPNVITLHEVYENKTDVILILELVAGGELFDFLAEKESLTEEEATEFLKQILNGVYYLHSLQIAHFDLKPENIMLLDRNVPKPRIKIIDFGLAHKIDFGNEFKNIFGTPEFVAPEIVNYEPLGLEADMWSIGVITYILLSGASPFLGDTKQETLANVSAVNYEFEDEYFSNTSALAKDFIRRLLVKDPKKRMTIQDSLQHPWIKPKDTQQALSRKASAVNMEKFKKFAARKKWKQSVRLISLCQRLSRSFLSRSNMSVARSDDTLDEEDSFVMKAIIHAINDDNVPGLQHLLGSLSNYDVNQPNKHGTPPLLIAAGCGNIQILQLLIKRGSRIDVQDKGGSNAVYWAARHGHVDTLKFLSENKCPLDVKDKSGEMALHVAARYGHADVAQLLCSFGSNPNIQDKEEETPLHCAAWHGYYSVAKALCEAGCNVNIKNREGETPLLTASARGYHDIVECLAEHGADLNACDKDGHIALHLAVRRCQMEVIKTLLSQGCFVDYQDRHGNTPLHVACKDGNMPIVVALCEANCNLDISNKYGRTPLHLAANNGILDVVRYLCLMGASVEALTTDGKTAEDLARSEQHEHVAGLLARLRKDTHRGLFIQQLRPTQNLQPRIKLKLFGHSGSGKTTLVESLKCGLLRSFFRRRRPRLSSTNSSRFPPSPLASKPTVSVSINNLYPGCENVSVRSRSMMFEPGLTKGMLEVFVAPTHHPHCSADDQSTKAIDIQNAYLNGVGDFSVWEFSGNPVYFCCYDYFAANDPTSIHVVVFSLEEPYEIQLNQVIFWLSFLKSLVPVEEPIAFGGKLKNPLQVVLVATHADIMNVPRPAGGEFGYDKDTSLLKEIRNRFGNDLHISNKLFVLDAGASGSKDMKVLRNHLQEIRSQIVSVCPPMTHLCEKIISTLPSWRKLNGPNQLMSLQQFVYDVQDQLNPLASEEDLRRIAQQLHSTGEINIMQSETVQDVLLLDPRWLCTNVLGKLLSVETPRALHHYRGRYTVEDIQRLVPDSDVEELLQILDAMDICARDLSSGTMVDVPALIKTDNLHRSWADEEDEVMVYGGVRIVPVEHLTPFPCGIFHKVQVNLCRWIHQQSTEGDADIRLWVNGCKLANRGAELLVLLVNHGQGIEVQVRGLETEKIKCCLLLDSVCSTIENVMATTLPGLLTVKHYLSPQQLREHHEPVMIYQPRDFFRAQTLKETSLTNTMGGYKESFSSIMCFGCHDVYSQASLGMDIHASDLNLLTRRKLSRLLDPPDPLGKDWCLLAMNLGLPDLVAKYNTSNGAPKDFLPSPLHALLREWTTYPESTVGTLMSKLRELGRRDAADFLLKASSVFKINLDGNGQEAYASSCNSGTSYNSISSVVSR

[29] = target: Serine/threonine-protein kinase TBK1 (Homo sapiens) (UniProt Q9UHD2); experiment: TBK1(h) Kinase panel; conditions: Compound concentration 1.0 uM, tested as the 2H-labelled form
[30] = target: 5-hydroxytryptamine receptor 2A (Homo sapiens) (UniProt P28223); conditions: Compound concentration 10.0 uM, tested as the 2H-labelled form
[31] = target: Protein kinase C beta type (Homo sapiens) (UniProt P05771); experiment: PKCbetaII (h) Kinase panel; conditions: Compound concentration 1.0 uM, tested as the 2H-labelled form
[32] = target: 5-hydroxytryptamine receptor 1B (Homo sapiens) (UniProt P28222); conditions: Compound concentration 10.0 uM, tested as the 2H-labelled form
[33] = target: Tyrosine-protein kinase Lck (Homo sapiens) (UniProt P06239); experiment: Lck(h) Kinase panel; conditions: Compound concentration 1.0 uM, tested as the 2H-labelled form
[34] = target: Serine-protein kinase ATM (Homo sapiens) (UniProt Q13315); experiment: ATM(h) Kinase panel; conditions: Compound concentration 1.0 uM, tested as the 2H-labelled form
[35] = target: Phosphatidylinositol 4,5-bisphosphate 3-kinase catalytic subunit gamma isoform (Homo sapiens) (UniProt P48736); experiment: PI3 Kinase (p120g)(h) Kinase panel; conditions: Compound concentration 1.0 uM, tested as the 2H-labelled form
[36] = target: Calcium/calmodulin-dependent protein kinase type II subunit alpha (Homo sapiens) (UniProt Q9UQM7); experiment: CaMKIIalpha(h) Kinase panel; conditions: Compound concentration 1.0 uM, tested as the 2H-labelled form
[37] = target: Alpha-1D adrenergic receptor (Homo sapiens) (UniProt P25100); conditions: Compound concentration 10.0 uM, tested as the 2H-labelled form
Chain of Alpha-1D adrenergic receptor (Homo sapiens) (P25100 whole entry): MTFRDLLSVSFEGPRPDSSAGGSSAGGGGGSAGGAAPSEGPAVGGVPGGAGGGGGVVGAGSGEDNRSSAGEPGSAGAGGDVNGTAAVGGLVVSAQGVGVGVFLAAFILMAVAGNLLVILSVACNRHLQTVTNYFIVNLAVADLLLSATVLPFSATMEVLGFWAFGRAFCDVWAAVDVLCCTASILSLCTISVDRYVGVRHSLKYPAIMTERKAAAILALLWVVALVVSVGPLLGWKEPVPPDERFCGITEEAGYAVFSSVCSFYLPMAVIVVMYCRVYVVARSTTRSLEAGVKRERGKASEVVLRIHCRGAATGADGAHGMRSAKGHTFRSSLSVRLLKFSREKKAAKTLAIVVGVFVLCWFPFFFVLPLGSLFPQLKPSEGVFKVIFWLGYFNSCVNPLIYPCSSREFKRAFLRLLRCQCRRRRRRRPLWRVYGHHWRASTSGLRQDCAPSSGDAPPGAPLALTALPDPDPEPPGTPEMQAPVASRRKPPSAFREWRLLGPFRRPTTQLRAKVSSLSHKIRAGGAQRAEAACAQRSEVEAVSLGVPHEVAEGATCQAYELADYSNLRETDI

[38] = target: Testis-specific serine/threonine-protein kinase 4 (Homo sapiens) (UniProt Q6SA08); experiment: TSSK4(h) Kinase panel; conditions: Compound concentration 1.0 uM, tested as the 2H-labelled form
[39] = target: Activin receptor type-1-like (Homo sapiens) (UniProt P37023); experiment: ALK1(h) Kinase panel; conditions: Compound concentration 1.0 uM, tested as the 2H-labelled form
[40] = target: Vascular endothelial growth factor receptor 3 (Homo sapiens) (UniProt P35916); experiment: Flt4(h) Kinase panel; conditions: Compound concentration 1.0 uM, tested as the 2H-labelled form
[41] = target: Mitogen-activated protein kinase 8 (Homo sapiens) (UniProt P45983); experiment: JNK1alpha1(h) Kinase panel; conditions: Compound concentration 1.0 uM, tested as the 2H-labelled form
[42] = target: Casein kinase I isoform gamma-1 (Homo sapiens) (UniProt Q9HCP0); experiment: CK1gamma1(h) Kinase panel; conditions: Compound concentration 1.0 uM, tested as the 2H-labelled form
[43] = target: Tyrosine-protein kinase SYK (Homo sapiens) (UniProt P43405); experiment: Syk(h) Kinase panel; conditions: Compound concentration 1.0 uM, tested as the 2H-labelled form
[44] = target: Tyrosine-protein kinase receptor TYRO3 (Homo sapiens) (UniProt Q06418); experiment: Rse(h) Kinase panel; conditions: Compound concentration 1.0 uM, tested as the 2H-labelled form
[45] = target: TGF-beta receptor type-1 (Homo sapiens) (UniProt P36897); experiment: TGFBR1(h) Kinase panel; conditions: Compound concentration 1.0 uM, tested as the 2H-labelled form
[46] = target: Mitogen-activated protein kinase 9 (Homo sapiens) (UniProt P45984); experiment: JNK2alpha2(h) Kinase panel; conditions: Compound concentration 1.0 uM, tested as the 2H-labelled form
Chain of Mitogen-activated protein kinase 9 (Homo sapiens) (P45984 whole entry, looked up): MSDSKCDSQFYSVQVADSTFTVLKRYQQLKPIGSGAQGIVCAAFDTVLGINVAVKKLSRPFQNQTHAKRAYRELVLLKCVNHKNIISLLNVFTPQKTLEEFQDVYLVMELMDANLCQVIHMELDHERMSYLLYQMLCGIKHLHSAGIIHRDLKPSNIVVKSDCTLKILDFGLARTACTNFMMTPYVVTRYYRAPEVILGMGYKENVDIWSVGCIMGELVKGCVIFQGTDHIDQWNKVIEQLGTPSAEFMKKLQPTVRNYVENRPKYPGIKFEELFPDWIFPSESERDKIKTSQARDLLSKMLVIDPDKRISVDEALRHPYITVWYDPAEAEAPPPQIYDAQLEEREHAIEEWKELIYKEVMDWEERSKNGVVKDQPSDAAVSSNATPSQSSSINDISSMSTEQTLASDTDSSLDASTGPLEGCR

[47] = target: Tyrosine-protein kinase receptor UFO (Homo sapiens) (UniProt P30530); experiment: Axl(h) Kinase panel; conditions: Compound concentration 1.0 uM, tested as the 2H-labelled form
[48] = target: Discoidin domain-containing receptor 2 (Homo sapiens) (UniProt Q16832); experiment: DDR2(h) Kinase panel; conditions: Compound concentration 1.0 uM, tested as the 2H-labelled form
[49] = target: Dual specificity tyrosine-phosphorylation-regulated kinase 1B (Homo sapiens) (UniProt Q9Y463); experiment: DYRK1B(h) Kinase panel; conditions: Compound concentration 1.0 uM, tested as the 2H-labelled form
[50] = target: Histamine H2 receptor (Homo sapiens) (UniProt P25021); conditions: Compound concentration 10.0 uM, tested as the 2H-labelled form
Chain of Histamine H2 receptor (Homo sapiens) (P25021 whole entry): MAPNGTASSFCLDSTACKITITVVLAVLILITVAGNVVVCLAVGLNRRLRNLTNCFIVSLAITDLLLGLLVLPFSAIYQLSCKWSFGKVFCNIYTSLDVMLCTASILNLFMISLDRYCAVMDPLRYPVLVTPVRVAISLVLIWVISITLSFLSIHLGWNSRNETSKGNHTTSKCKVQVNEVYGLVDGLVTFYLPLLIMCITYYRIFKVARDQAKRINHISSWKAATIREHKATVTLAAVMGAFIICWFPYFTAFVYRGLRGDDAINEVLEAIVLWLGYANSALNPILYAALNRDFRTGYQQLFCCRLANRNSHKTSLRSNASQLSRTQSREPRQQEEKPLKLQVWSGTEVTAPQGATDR

[51] = target: Ephrin type-A receptor 2 (Homo sapiens) (UniProt P29317); experiment: EphA2(h) Kinase panel; conditions: Compound concentration 1.0 uM, tested as the 2H-labelled form

Measured: inhibition

CC1(C)Cn2nc(-c3ccc(F)cn3)c(-c3ccnc4[nH]ncc34)c2CO1
inactive: [1] -6% | [2] 20% | [3] -8% | [4] 17% | [5] 2% | [6] 3% | [7] 15% | [8] 0% | [9] 0% | [10] -3% | [11] 5% | [12] 7% | [13] 4% | [14] 2% | [15] 2% | [16] 9% | [17] 9% | [18] 21% | [19] -6% | [20] 6% | [21] -2% | [22] 4% | [23] 21% | [24] 2% | [25] 25% | [26] -8% | [27] 2% | [28] 10% | [29] 24% | [30] 16.5% | [31] -3% | [32] 12.4% | [33] 17% | [34] 3% | [35] 2% | [36] 0% | [37] 8.27% | [38] 5% | [39] 4% | [40] 7% | [41] -6% | [42] 4% | [43] -8% | [44] 9% | [45] 43% | [46] -2% | [47] 16% | [48] 8% | [49] -10% | [50] -1.3% | [51] 17%
